Values joined by “and” are separate entries in the source; they are usually repeats but may differ in a detail not shown here. Equal entries are not always repeated. “Also recorded” adds a separate entry of the source. Strand notation (5' to 3'): a small letter for the sugar, then the base; units joined by * are phosphorothioate-linked, units joined directly phosphodiester-linked; [ ] holds rarer units or linkages, { } end groups; capitals alone tell only the bases. d = 2'-deoxy (DNA); m = 2'-O-methyl
Experiments:
ras mRNA = test: Northern blot analysis of ras expression in T24 cells; assay type: cell-based, human; parameters: inhibition of ras expression / decrease of ras mRNA: concentration or dose not given beside the values; conditions: for inhibition of ras expression in T24 cells: result in words
Procedure: (§1) The human urinary bladder cancer cell line T24 was obtained from the American Type Culture Collection (Rockville Md.). Cells were grown in McCoy's 5A medium with L-glutamine (GIBCO-BRL, Gaithersburg, Md.), supplemented with 10% heat-inactivated fetal calf serum and 50 U/ml each of penicillin and streptomycin. Cells were seeded on 100 mm plates. When they reached 70% confluency, they were treated with oligonucleotide. Plates were washed with 10 ml prewarmed PBS and 5 ml of OptiMEM (GIBCO) reduced-serum medium containing 2.5 μl DOTMA. Oligonucleotide was then added to the desired concentration. After 4 hours of treatment, the medium was replaced with McCoy's medium. Cells were harvested 48 hours after oligonucleotide treatment and RNA was isolated using a standard CsCl purification method. [Kingston in Current Protocols in Molecular Biology, F. M. Ausubel, R. Brent, R. E. Kingston, D. D. Moore, J. A. Smith, J. G. Seidman and K. Strahl, Eds., John Wiley and Sons, New York.] The human epithelioid carcinoma cell line HeLa 229 was obtained from the American Type Culture Collection (Bethesda, Md.). HeLa cells were maintained as monolayers on 6-well plates in Dulbecco's Modified Eagle's medium (DMEM) supplemented with 10 fetal bovine serum and 100 U/ml penicillin. Treatment with oligonucleotide and isolation of RNA were essentially as described above for T24 cells.
Northern hybridization: 10 μg of each RNA was electrophoresed on a 1.2% agarose/formaldehyde gel and transferred overnight to GeneBind 45 nylon membrane (Pharmacia LKB, Piscataway, N.J.) using standard methods. [Kingston in Current Protocols in Molecular Biology, F. M. Ausubel, R. Brent, R. E. Kingston, D. D. Moore, J. A. Smith, J. G. Seidman and K. Strahl, Eds., John Wiley and Sons, New York.] RNA was UV-crosslinked to the membrane. Double-stranded ^32P-labeled probes were synthesized using the Prime a Gene labeling kit (Promega, Madison Wis.). The ras probe was a SalI-NheI fragment of a cDNA clone of the activated (mutant) H-ras mRNA having a GGC-to-GTC mutation at codon-12. The control probe was G3PDH. Blots were prehybridized for 15 minutes at 68° C. with the QuickHyb hybridization solution (Stratagene, La Jolla, Calif.). The heat-denatured radioactive probe (2.5×10^6 counts/2 ml hybridization solution) mixed with 100 μl of 10 mg/ml salmon sperm DNA was added and the membrane was hybridized for 1 hour at 68° C. The blots were washed twice for 15 minutes at room temperature in 2×SSC/0.1% SDS and once for 30 minutes at 60° C. with 0.1×SSC/0.1%SDS. Blots were autoradiographed and the intensity of signal was quantitated using an ImageQuant PhosphorImager (Molecular Dynamics, Sunnyvale, Calif.). Northern blots were first hybridized with the ras probe, then stripped by boiling for 15 minutes in 0.1×SSC/0.1%SDS and rehybridized with the control G3PDH probe to check for correct sample loading.

[1] = test system: crude HeLa cellular extracts
[2] = test system: 25 mer oligoribonucleotide complement; test: Melting curves of 2′-modified 17-mers with 7-deoxy gap; assay type: binding; conditions: 17-mer with 7-deoxy gap hybridized with 25 mer oligoribonucleotide complement
From the text: This is attributed to these phosphodiester compounds being substrates for nucleases that degrade such phosphodiester compounds thus preventing them potentially activating RNase H. Other sugar modifications: The effects of other 2′ sugar modifications besides 2′-O-methyl on antisense activity in chimeric oligonucleotides have been examined. These modifications are listed in Table 4, along with the Tm values obtained when 17 mer oligonucleotides having 2′-modified nucleotides flanking a 7-base deoxy gap were hybridized with a 25 mer oligoribonucleotide complement as described in Example 25. […] As alkyl length increased, Tm decreased.
Absorbance vs. temperature curves were measured at 260 nm using a Gilford 260 spectrophotometer interfaced to an IBM PC computer and a Gilford Response II spectrophotometer. The buffer contained 100 mM Na^+, 10 mM phosphate and 0.1 mM EDTA, pH 7. Oligonucleotide concentration was 4 μM each strand determined from the absorbance at 85° C. and extinction coefficients calculated according to Puglisi and Tinoco [Methods in Enzymol., 180, 304 (1989). Tm values, free energies of duplex formation and association constants were obtained from fits of data to a two state model with linear sloping baselines. [Petersheim and Turner, Biochemistry, 22, 256 (1983). Reported parameters are averages of at least three experiments. For some oligonucleotides, free energies of duplex formation were also obtained from plots of Tm^−1 vs log10 (concentration). Borer et al., J. Mol. Biol., 86, 843 (1974).

[3] = test system: codon-12 point mutation of mutant (activated) H-ras RNA; assay type: cell-based, human
[4] = test system: ras expression in HeLa cells (wild-type H-ras codon-12); test: Northern blot analysis of ras expression in HeLa cells; assay type: cell-based, human
Procedure: as §1, with “The human epithelioid carcinoma cell line HeLa 229 was obtained from the American Type Culture Collection (Bethesda, Md.). HeLa cells were maintained as monolayers on 6-well plates in Dulbecco's Modified Eagle's medium (DMEM) supplemented with 10 fetal bovine serum and 100 U/ml penicillin. Treatment with oligonucleotide and isolation of RNA were essentially as described above for T24 cells.” left out
Northern hybridization: 10 μg of each RNA was electrophoresed on a 1.2% agarose/formaldehyde gel and transferred overnight to GeneBind 45 nylon membrane (Pharmacia LKB, Piscataway, N.J.) using standard methods. […] Blots were autoradiographed and the intensity of signal was quantitated using an ImageQuant PhosphorImager (Molecular Dynamics, Sunnyvale, Calif.). […]

H-ras = test: ras transactivation reporter gene assay; assay type: cell-based; conditions: antisense activity against H-ras, 17-mer with 7-deoxy gap
From the text: The expression plasmid pSV2-oli, containing an activated (codon 12, GGC→GTC) H-ras cDNA insert under control of the constitutive SV40 promoter, was a gift from Dr. Bruno Tocque (Rhone-Poulenc Sante, Vitry, France). This plasmid was used as a template to construct, by PCR, a H-ras expression plasmid under regulation of the steroid-inducible mouse mammary tumor virus (MMTV) promoter. To obtain H-ras coding sequences, the 570 bp coding region of the H-ras gene was amplified by PCR. The PCR primers were designed with unique restriction endonuclease sites in their 5′-regions to facilitate cloning. The PCR product containing the coding region of the H-ras codon 12 mutant oncogene was gel purified, digested, and gel purified once again prior to cloning. This construction was completed by cloning the insert into the expression plasmid pMAMneo (Clontech Laboratories, Calif.).
The ras-responsive reporter gene pRD053 was used to detect ras expression. [Owen et al., Proc. Natl. Acad. Sci. U.S.A., 87, 3866 (1990).

[5] = test system: T24 cancer cell proliferation; test: Inhibition of proliferation of cancer cells; assay type: cell-based, human; conditions: for inhibition of cell proliferation / IC50: T24 cells; for IC50: dose-response study
Procedure: Cells were cultured and treated with oligonucleotide essentially as described in Example 27. Cells were seeded on 60 mm plates and were treated with oligonucleotide in the presence of DOTMA when they reached 70% confluency. Time course experiment: On day 1, cells were treated with a single dose of oligonucleotide at a final concentration of 100 nM. The growth medium was changed once on day 3 and cells were counted every day for 5 days, using a counting chamber. Dose-response experiment: Various concentrations of oligonucleotide (10, 25, 50, 100 or 250 nM) were added to the cells and cells were harvested and counted 3 days later. Oligonucleotides 2570, 3985 and 4690 were tested for effects on T24 cancer cell proliferation.

c-raf mRNA = test: Northern blot analysis of inhibition of c-raf mRNA expression in T24 cells; assay type: cell-based, human
From the text: Chimeric oligonucleotides having SEQ ID NO: 7 were designed using the Genbank c-raf sequence HUMRAFR (Genbank listing x03484), synthesized and tested for inhibition of c-raf mRNA expression in T24 bladder carcinoma cells using a Northern blot assay. These chimeric oligonucleotides have central “gap” regions of 6, 8 or 10 deoxynucleotides flanked by two regions of 2′-O-methyl modified nucleotides, and are shown in Table 10. Backbones were uniformly phosphorothioate. […] These oligonucleotides are preferred.
The human urinary bladder cancer cell line T24 was obtained from the American Type Culture Collection (Rockville, Md.). Cells were grown in McCoy's 5A medium with L-glutamine (GIBCO-BRL, Gaithersburg, Md.), supplemented with 10% heat-inactivated fetal calf serum and 50 U/ml each of penicillin and streptomycin. Cells were seeded on 100 mm plates. When they reached 70% confluency, they were treated with oligonucleotide. Plates were washed with 10 ml prewarmed PBS and 5 ml of OptiMEM reduced-serum medium containing 2.5 μl DOTMA. Oligonucleotide with lipofectin was then added to the desired concentration. After 4 hours of treatment, the medium was replaced with McCoy's medium. Cells were harvested 24 to 72 hours after oligonucleotide treatment and RNA was isolated using a standard CsCl purification method. [Kingston in Current Protocols in Molecular Biology, F. M. Ausubel, R. Brent, R. E. Kingston, D. D. Moore, J. A. Smith, J. G. Seidman and K. Strahl, Eds., John Wiley and Sons, New York.] Total RNA was isolated by centrifugation of cell lysates over a CsCl cushion. RNA samples were electrophoresed through 1.2% agarose-formaldehyde gels and transferred to hybridization membranes by capillary diffusion over a 12-14 hour period. The RNA was cross-linked to the membrane by exposure to UV light in a Stratalinker (Stratagene, La Jolla, Calif.) and hybridized to random-primed ^32P-labeled c-raf cDNA probe (obtained from ATCC) or G3PDH probe as a control. RNA was quantitated using a Phosphorimager (Molecular Dynamics, Sunnyvale, Calif.).

## CdCdAd CdAdCd CdGdAd CdGdGd CdGdCd CdCd [Oligonucleotide 2570, reference compound]
Ras mRNA
  inhibition of ras expression / decrease of ras mRNA: 82%
  inhibition of ras expression in T24 cells: inhibited ras expression in T24 cells; also recorded: decreased ras mRNA levels in T24 cells
[1]
  degradation in HeLa cell extract: no degradation after 5 hours
[2]
  Tm (° C.): 6 °C
[3]
  inhibition of ras-luciferase activity: dose-dependent inhibition of ras-luciferase activity
  selectivity toward the mutant form of ras-luciferase as compared to the normal form: approximate threefold selectivity
[4]
  inhibition of ras expression in HeLa cells: did not inhibit ras expression in HeLa cells
H-ras
  IC50: 150 nM
[5]; 100 nM oligonucleotide concentration
  inhibition of T24 cell proliferation relative to inhibition of HeLa cells: four times as severe
[5]
  inhibition of cell proliferation: 61%
  IC50: 98 nM

## TCCTCCTCCCCGCGGCGGGT (sugars from the 5' end m11 d9, all phosphorothioate, T or U not given here) [Oligonucleotide 7848]
c-raf mRNA
  inhibition of c-raf mRNA expression: > 70%

## 3985 (CCACACCGACGGCGCCC; 2'-O-methyl wings, phosphorothioate, wing lengths not given here) [Oligonucleotide 3985]
Ras mRNA
  inhibition of ras expression / decrease of ras mRNA: 95% and 81%
[3]
  inhibition of ras-luciferase activity: greatest inhibition
[5]
  inhibition of cell proliferation: 82%
  IC50: 61 nM

## 7854 (TTCTCCTCCTCCCCTGGCAG; sugars from the 5' end m12 d8, all phosphorothioate, T or U not given here) [Oligonucleotide 7854]
c-raf mRNA
  inhibition of c-raf mRNA expression: > 70%

## 7849 (dC*dT*dC*dG*dC*dC*dC*dG*dC*dT*dC*dC*dT*dC*dC*dT*dC*dC*dC*dC) [Oligonucleotide 7849]
c-raf mRNA
  inhibition of c-raf mRNA expression: > 70%

## TCCCGCCTGTGACATGCATT (sugars from the 5' end m7 d6 m7, all phosphorothioate, T or U not given here) [Oligonucleotide 6720]
c-raf mRNA
  inhibition of c-raf mRNA expression: greater than 70%

## T C C G T C AT C G C T C C T C A G G G [Oligonucleotide 2503]
Ras mRNA
  inhibition of ras expression / decrease of ras mRNA: 71%
  inhibition of ras expression in T24 cells: inhibited ras expression in T24 cells
[4]
  inhibition of ras expression in HeLa cells: inhibited ras expression in HeLa cells

## 6717 (TCCCGCCTGTGACATGCATT; sugars from the 5' end m6 d8 m6, all phosphorothioate, T or U not given here) [Oligonucleotide 6717]
c-raf mRNA
  inhibition of c-raf mRNA expression: greater than 90%
